Measurements from PubChem BioAssay (NCI).
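Results reflect a 48-hour exposure of cells in 96-well plates to compound at five concentrations. The concentration for 50% growth inhibition is given as GI50. TGI denotes the concentration required for complete inhibition of growth.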

Assays:
Assay in all cases: DTP human tumour cell line panel, 48 h
[1] = tested on: NCI/ADR-RES ovarian
[2] = tested on: OVCAR-5 ovarian
[3] = tested on: SW-620 colon
[4] = tested on: BT-549 breast
[5] = tested on: HOP-92 NSCLC
[6] = tested on: SF-295 CNS
[7] = tested on: NCI-H23 lung
[8] = tested on: MALME-3M melanoma
[9] = tested on: RXF 393 renal
[10] = tested on: SK-OV-3 ovarian

SMILES | GI50 [1] [µM] | TGI [1] [µM] | GI50 [2] [µM] | TGI [2] [µM] | GI50 [3] [µM] | TGI [3] [µM] | GI50 [4] [µM] | TGI [4] [µM] | GI50 [5] [µM] | TGI [5] [µM] | GI50 [6] [µM] | TGI [6] [µM] | GI50 [7] [µM] | TGI [7] [µM] | GI50 [8] [µM] | TGI [8] [µM] | GI50 [9] [µM] | TGI [9] [µM] | GI50 [10] [µM] | TGI [10] [µM]
Clc1ccc2nc(Cl)c3ccccc3c2c1 | 17.8 | > 100 | 22.1 | > 100 | > 100 | > 100 | 36.1 | > 100 | 11.9 | 29.7 | 10.5 | 35.7 | 74.9 | > 100 | 10.7 | 71.1 | 9.15 | 30.4 | 5.17 | 21.2
COc1ccc(-n2cc(-c3cc(OC)c(OC)c(OC)c3)[nH]c2=S)cc1Cl | 27.5 | > 100 | 28.3 | > 100 | > 100 | > 100 | 10.3 | 31.3 | 14 | 33 | 43 | > 100 | 46.4 | > 100 | 40.1 | > 100 | 17.6 | > 100 | 17 | 48.3
CCOC(=O)c1ccccc1SC(C[N+](=O)[O-])c1ccccc1 (centres undefined) | 22.5 | 64.1 | 12.3 | 25.3 | 2.04 | 4.7 | 2.31 | 5.53 | 6.94 | 21.9 | 18.3 | 34.6 | 12.3 | 35.1 | 14.8 | 29.5 | 1.64 | 3.09 | 12.7 | 26.5
O=C1NC(=O)[C@@H](c2c[nH]c3ccccc23)[C@@H]1c1c[nH]c2ccccc12 | > 25 | > 25 | > 25 | > 25 | > 25 | > 25 | > 25 | > 25 | 21.2 | > 25 | > 25 | > 25 | > 25 | > 25 | > 21.8 | > 25 | > 25 | > 25 | > 25 | > 25
Nc1nccc2c1ccn2-c1cccc(NC(=O)c2ccc(N3CCOCC3)c(C(F)(F)F)c2)c1 | 0.361 | > 10.2 | 1.84 | > 50 | 0.49 | > 50 | 1.04 | 5.5 | 0.347 | 3.23 | 0.371 | 1.85 | 1.16 | 14.7 | 0.634 | 16.7 | 0.213 | 0.876 | 0.741 | 6.52
COc1ccc2c(c1)[nH]c(=O)c1c3cc(OC)c(OC)cc3cn21 | < 0.01 | < 0.0133 | 0.0411 | 18.1 | < 0.01 | 1.52 | < 0.024 | 0.861 | 0.0272 | 17.4 | < 0.01 | 0.409 | < 0.0173 | 16.4 | 16.6 | 44.1 | < 0.01 | 1.89 | < 0.0111 | 17.5
C=C(C)[C@@H]1CC[C@]2(C(=O)O)CC[C@]3(C)[C@H](CC[C@@H]4[C@@]5(C)C/C(=C/c6cccc(I)c6)C(=O)C(C)(C)[C@@H]5CC[C@]43C)[C@@H]12 | 3.22 | 14.2 | 3.19 | 14.7 | 1.95 | 4.58 | 2.2 | 6.75 | 1.72 | 5.28 | 2.91 | 12.6 | 2.49 | 8.44 | 2.46 | 6.65 | 2.88 | 11.8 | 3.27 | 11.9
O=C(c1nn(-c2ccc(Cl)cc2)cc1O)n1nc(C(F)(F)F)cc1-c1ccccc1 | 2.09 | > 35.9 |  | > 85 | 4.51 | > 100 | 1.12 | > 100 | 1.67 | > 21.4 | 0.478 | > 65.6 | 5.49 | > 100 | 12.1 | > 100 | 0.687 | > 76.1 | 2.53 | > 100
CCCCCCCCCCC[C@@H](C[C@H]1OC(=O)[C@H]1CCCCCC)OC(=O)[C@@H](CC(C)C)NC=O | 2.86 | 15.2 | 21.7 | > 100 | 4.92 | 94.1 | 1.9 | 15.9 | 1.55 | 16.1 | 2.08 | 10.6 | 7.19 | 67.4 | 15.9 | 41.7 | 1.71 | 16.8 | 10.1 | 62.8
O=C1CCSC(=S)N1c1ccc(Br)c(Cl)c1 |  | > 100 |  | > 100 |  | 91.6 |  | 41.1 |  | 69.1 |  | 73.1 |  | > 100 |  | 49.8 |  | 50.8 |  | 91.5
Oc1ccc2ccccc2c1N=Nc1ccc(Cl)cc1 |  | > 100 |  | > 100 |  | > 100 |  | > 100 |  | > 100 |  | > 100 |  | > 100 |  | > 100 |  | > 100 |  | > 100
